{"source": "patent US20230094076A1", "about": "“COMBINATION THERAPY” (GlaxoSmithKline Intellectual Property Development Limited, priority 2016, published 2023)", "key": {"[1]": {"test_system": "human renal cell carcinoma xenografts (ACHN)", "conditions": "for Body weight Difference (vs. vehicle) / Regression: ACHN (ccRCC)"}, "PRMT6": {"target": "PRMT6 (Homo sapiens, UniProt Q96LA8)", "sequence (Q96LA8 whole entry)": "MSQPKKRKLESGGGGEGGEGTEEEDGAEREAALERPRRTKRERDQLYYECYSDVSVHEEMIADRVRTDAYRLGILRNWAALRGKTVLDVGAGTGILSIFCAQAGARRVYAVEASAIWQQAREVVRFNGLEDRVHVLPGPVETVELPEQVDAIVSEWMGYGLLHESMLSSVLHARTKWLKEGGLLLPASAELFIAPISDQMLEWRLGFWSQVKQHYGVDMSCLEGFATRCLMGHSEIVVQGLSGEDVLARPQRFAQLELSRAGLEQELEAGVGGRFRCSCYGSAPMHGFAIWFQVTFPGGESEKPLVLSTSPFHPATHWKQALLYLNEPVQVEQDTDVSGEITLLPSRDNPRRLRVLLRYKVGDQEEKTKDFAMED", "assay": "PRMT family radioactive assay", "type": "biochemical"}, "G-401": {"test_system": "G-401", "conditions": "G-401, Wilm's, 6-day", "experimental": "(§1) The growth of all cell lines was evaluated over time across a wide range of seeding densities to identify conditions that permitted proliferation throughout the entire 6-day assay. Cells were plated at the optimal seeding density and after overnight incubation, a 20-point 2-fold titration of compound was added and plates were incubated for 6 days. A replicate plate of cells was harvested at the time of compound addition to quantify the starting number of cells (T0). Values obtained after the 6 day treatment were expressed as a function of the T0 value and plotted against compound concentration. The T0 value was normalized to 100% and represents the number of cells at the time of compound addition. The data were fit with a 4 parameter equation to generate a concentration response curve and the growth IC50 (gIC50) was determined. The gIC50 is the midpoint of the ‘growth window’, the difference between the number of cells at the time of compound addition (To) and the number of cells after 6 days (DMSO control). The growth-death assay can be used to quantify the net population change, clearly defining cell death (cytotoxicity) as fewer cells compared to the number at the time of compound addition (T0)."}, "HT144": {"test_system": "HT144", "conditions": "HT144, melanoma, 6-day", "experimental": "as §1"}, "AML cell lines": {"test_system": "AML cell lines", "conditions": "10 cell lines", "experimental": "as §1"}, "MV-4-11": {"test_system": "MV-4-11", "conditions": "MV-4-11, AML subtype M5, 6-day", "experimental": "as §1"}, "TF-1": {"test_system": "TF-1", "conditions": "TF-1, AML subtype M6, 6-day", "experimental": "as §1"}, "Lymphoma cell lines": {"test_system": "Lymphoma cell lines", "conditions": "59 cell lines", "experimental": "as §1"}, "CAKI-1": {"test_system": "CAKI-1", "conditions": "CAKI-1, ccRCC, 6-day", "experimental": "as §1"}, "[2]": {"test_system": "Bladder cancer cell lines", "conditions": "18 cell lines", "experimental": "as §1"}, "SK-MEL-5": {"test_system": "SK-MEL-5", "conditions": "SK-MEL-5, melanoma, 6-day", "experimental": "as §1"}, "SK-MEL-2": {"test_system": "SK-MEL-2", "conditions": "SK-MEL-2, melanoma, 6-day", "experimental": "as §1"}, "NOMO-1": {"test_system": "NOMO-1", "conditions": "NOMO-1, AML subtype M5, 6-day", "experimental": "as §1"}, "HL-60": {"test_system": "HL-60", "conditions": "HL-60, AML subtype M3, 6-day", "experimental": "as §1"}, "G-402": {"test_system": "G-402", "conditions": "G-402, Leiomyoblastoma, 6-day", "experimental": "as §1"}, "COLO741": {"test_system": "COLO741", "conditions": "COLO741, melanoma, 6-day", "experimental": "as §1"}, "NSCLC cell lines": {"test_system": "NSCLC cell lines", "conditions": "percent of cell lines, 25 cell lines", "experimental": "as §1"}, "786-O": {"test_system": "786-O", "conditions": "ccRCC, 6-day", "experimental": "as §1"}, "Melanoma cell lines": {"test_system": "Melanoma cell lines", "conditions": "7 cell lines", "experimental": "as §1"}, "ACHN": {"test_system": "ACHN", "conditions": "ccRCC, 6-day", "experimental": "as §1"}, "SKM-1": {"test_system": "SKM-1", "conditions": "SKM-1, AML subtype M5, 6-day", "experimental": "as §1"}, "SK-NEP-1": {"test_system": "SK-NEP-1", "conditions": "SK-NEP-1, Wilm's, 6-day", "experimental": "as §1"}, "A498": {"test_system": "A498", "conditions": "A498, ccRCC, 6-day", "experimental": "as §1"}, "IGR-1": {"test_system": "IGR-1", "conditions": "IGR-1, melanoma, 6-day", "experimental": "as §1"}, "769-P": {"test_system": "769-P", "conditions": "ccRCC, 6-day", "experimental": "as §1"}, "MOLM-16": {"test_system": "MOLM-16", "conditions": "MOLM-16, AML subtype M0, 6-day", "experimental": "as §1"}, "Colon cancer cell lines": {"test_system": "Colon cancer cell lines", "conditions": "percent of cell lines, 34 cell lines", "experimental": "as §1"}, "CAKI-2": {"test_system": "CAKI-2", "conditions": "CAKI-2, ccRCC, 6-day", "experimental": "as §1"}, "Kidney cancer cell lines": {"test_system": "Kidney cancer cell lines", "conditions": "percent of cell lines, 10 cell lines", "experimental": "as §1"}, "MDA-MB-": {"test_system": "MDA-MB-", "conditions": "melanoma, 6-day", "experimental": "as §1"}, "[3]": {"test_system": "Prostate cancer cell lines", "conditions": "4 cell lines", "experimental": "as §1"}, "[4]": {"conditions": "600 QD mg/kg oral, arm terminated at day 31"}}, "note": "Like-named read-outs stand apart in the source and are kept apart here."}
{"smiles": "CCOCC1(COCC)CCC(c2n[nH]cc2CN(C)CCNC)CC1", "note": "[Compound A]", "values": [{"measurement": "body weight loss", "setting": "[1]; 600 mg/kg daily", "result": "Significant body weight loss"}, {"measurement": "Body weight Difference (vs. vehicle)", "setting": "[1]; 150 QD mg/kg oral, Day 59", "result": "−3", "unit": "%"}, {"measurement": "Body weight Difference (vs. vehicle)", "setting": "[1]; 300 QD mg/kg oral, Day 59", "result": "−4", "unit": "%"}, {"measurement": "Regression", "setting": "[1]; 300 QD mg/kg oral, Day 59", "result": 2, "unit": "%"}, {"measurement": "Body weight Difference (vs. vehicle)", "setting": "[1]; 450 QD mg/kg oral, Day 59", "result": "−7", "unit": "%"}, {"measurement": "Regression", "setting": "[1]; 450 QD mg/kg oral, Day 59", "result": 15, "unit": "%"}, {"measurement": "Body weight Difference (vs. vehicle)", "setting": "[1]; [4]", "result": "−17", "unit": "%"}, {"measurement": "Regression", "setting": "[1]; [4]", "result": 6, "unit": "%"}, {"measurement": "doses at which regressions were observed", "setting": "[1]; ACHN xenograft, oral daily", "result": "≥ 300", "unit": "mg/kg"}, {"measurement": "inhibition of activity", "setting": "PRMT6; 60 minute SAM:Enzyme:Compound A preincubation", "result": "inhibited the activity"}, {"measurement": "time dependence of inhibition", "setting": "PRMT6; increasing preincubation times", "result": "time dependent inhibitor"}, {"measurement": "Ymin − T0", "setting": "G-401", "result": 353.7}, {"measurement": "Ymin − T0", "setting": "HT144", "result": 124.9}, {"measurement": "gIC100", "setting": "HT144", "result": "29.33 ± 0.00", "unit": "µM"}, {"measurement": "number of cell lines with induced cytotoxicity", "setting": "AML cell lines; 6-day proliferation assay", "result": 5}, {"measurement": "% Cytotoxic", "setting": "AML cell lines; percent of cell lines", "result": 50, "unit": "%"}, {"measurement": "% gIC100 < 2", "setting": "AML cell lines; percent of cell lines", "result": 0, "unit": "%"}, {"measurement": "gIC100", "setting": "MV-4-11", "result": "14.55 ± 4.27", "unit": "µM"}, {"measurement": "Ymin − T0", "setting": "MV-4-11; negative = cell death", "result": 565.6}, {"measurement": "gIC100", "setting": "TF-1", "result": "29.33 ± 0.00", "unit": "µM"}, {"measurement": "Ymin − T0", "setting": "TF-1; negative = cell death", "result": 788.1}, {"measurement": "Median gIC100", "setting": "Lymphoma cell lines; 6-day proliferation", "result": 21.62, "unit": "µM"}, {"measurement": "% Cytotoxic", "setting": "Lymphoma cell lines; percent of cell lines", "result": 54, "unit": "%"}, {"measurement": "% gIC100 < 2", "setting": "Lymphoma cell lines; percent of cell lines", "result": 14, "unit": "%"}, {"measurement": "Ymin − T0", "setting": "CAKI-1", "result": 178.7}, {"measurement": "Median gIC100", "setting": "[2]; 6-day proliferation", "result": 29.33, "unit": "µM"}, {"measurement": "% Cytotoxic", "setting": "[2]; percent of cell lines", "result": 0, "unit": "%"}, {"measurement": "% gIC100 < 2", "setting": "[2]; percent of cell lines", "result": 0, "unit": "%"}, {"measurement": "Ymin − T0", "setting": "SK-MEL-5", "result": 31.8}, {"measurement": "gIC100", "setting": "SK-MEL-5", "result": "27.09 ± 3.92", "unit": "µM"}, {"measurement": "Ymin − T0", "setting": "SK-MEL-2", "result": 35.9}, {"measurement": "gIC100", "setting": "SK-MEL-2", "result": 22.37, "unit": "µM"}, {"measurement": "gIC100", "setting": "NOMO-1", "result": "29.33 ± 0.00", "unit": "µM"}, {"measurement": "Ymin − T0", "setting": "NOMO-1; negative = cell death", "result": 259.1}, {"measurement": "gIC100", "setting": "HL-60", "result": "6.38 ± 12.83", "unit": "µM"}, {"measurement": "Ymin − T0", "setting": "HL-60; negative = cell death", "result": "−33.4"}, {"measurement": "Ymin − T0", "setting": "G-402", "result": 92.6}, {"measurement": "Ymin − T0", "setting": "COLO741", "result": 12.5}, {"measurement": "gIC100", "setting": "COLO741", "result": "28.55 ± 1.40", "unit": "µM"}, {"measurement": "% Cytotoxic", "setting": "NSCLC cell lines", "result": 16, "unit": "%"}, {"measurement": "% gIC100 < 2", "setting": "NSCLC cell lines", "result": 0, "unit": "%"}, {"measurement": "Ymin − T0", "setting": "786-O", "result": 643.7}, {"measurement": "Median gIC100", "setting": "Melanoma cell lines; 6-day proliferation", "result": 29.33, "unit": "µM"}, {"measurement": "% Cytotoxic", "setting": "Melanoma cell lines; percent of cell lines", "result": 0, "unit": "%"}, {"measurement": "% gIC100 < 2", "setting": "Melanoma cell lines; percent of cell lines", "result": 0, "unit": "%"}, {"measurement": "Ymin − T0", "setting": "ACHN", "result": 96.5}, {"measurement": "gIC100", "setting": "SKM-1", "result": "11.61 ± 5.52", "unit": "µM"}, {"measurement": "Ymin − T0", "setting": "SKM-1; negative = cell death", "result": "−19.1"}, {"measurement": "Ymin − T0", "setting": "SK-NEP-1", "result": 25.3}, {"measurement": "Ymin − T0", "setting": "A498", "result": 313.4}, {"measurement": "Ymin − T0", "setting": "IGR-1", "result": 507.0}, {"measurement": "gIC100", "setting": "IGR-1", "result": "29.33 ± 0.00", "unit": "µM"}, {"measurement": "Ymin − T0", "setting": "769-P", "result": 119.0}, {"measurement": "gIC100", "setting": "MOLM-16", "result": "9.69 ± 10.58", "unit": "µM"}, {"measurement": "Ymin − T0", "setting": "MOLM-16; negative = cell death", "result": "−68.6"}, {"measurement": "% Cytotoxic", "setting": "Colon cancer cell lines", "result": 3, "unit": "%"}, {"measurement": "% gIC100 < 2", "setting": "Colon cancer cell lines", "result": 0, "unit": "%"}, {"measurement": "Ymin − T0", "setting": "CAKI-2", "result": 169.6}, {"measurement": "% Cytotoxic", "setting": "Kidney cancer cell lines", "result": 0, "unit": "%"}, {"measurement": "% gIC100 < 2", "setting": "Kidney cancer cell lines", "result": 0, "unit": "%"}, {"measurement": "Ymin − T0", "setting": "MDA-MB-", "result": 19.1}, {"measurement": "gIC100", "setting": "MDA-MB-", "result": "29.33 ± 0.00", "unit": "µM"}, {"measurement": "Median gIC100", "setting": "[3]; 6-day proliferation", "result": 29.34, "unit": "µM"}, {"measurement": "% Cytotoxic", "setting": "[3]; percent of cell lines", "result": 0, "unit": "%"}, {"measurement": "% gIC100 < 2", "setting": "[3]; percent of cell lines", "result": 0, "unit": "%"}]}
